Data from patent US4902617A, “Enzyme and process for producing the same” (Hoffmann-La Roche Inc., priority 1986, dated 1990).

Columns and labels:
[1] = molecular target: T1, L-sorbosone dehydrogenase, purified from cytosol fraction of Gluconobacter oxydans UV-10 (FERM BP-1267) (Gluconobacter oxydans, UniProt Q47943); experiment: biochemical; conditions: pH 7, read-out: Relative Activity (%) in presence of substance
T1 sequence (Q47943 1-498): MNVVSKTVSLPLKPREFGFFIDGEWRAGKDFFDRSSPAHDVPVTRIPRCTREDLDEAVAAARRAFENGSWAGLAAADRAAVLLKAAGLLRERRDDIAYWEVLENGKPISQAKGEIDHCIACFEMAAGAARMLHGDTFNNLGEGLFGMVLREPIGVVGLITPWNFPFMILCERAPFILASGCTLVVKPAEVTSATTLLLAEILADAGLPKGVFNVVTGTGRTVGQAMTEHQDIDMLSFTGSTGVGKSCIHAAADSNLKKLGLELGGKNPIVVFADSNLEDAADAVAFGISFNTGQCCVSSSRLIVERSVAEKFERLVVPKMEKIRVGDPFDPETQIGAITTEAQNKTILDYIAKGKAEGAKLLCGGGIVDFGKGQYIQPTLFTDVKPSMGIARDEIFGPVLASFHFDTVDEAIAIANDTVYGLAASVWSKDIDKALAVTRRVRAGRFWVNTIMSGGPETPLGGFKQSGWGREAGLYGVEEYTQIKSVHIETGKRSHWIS

[2] = molecular target: T1, L-sorbosone dehydrogenase, purified from cytosol fraction of Gluconobacter oxydans UV-10 (FERM BP-1267)

## O[C@H](CS)[C@H](O)CS (racemic) [Dithiothreitol]
[1]
  activity at 5000 µM: 119%

## O=C(O)CI [ICH2 COONa]
[1]
  activity at 5000 µM: 57.7%

## [N-]=[N+]=[N-].[Na+] [NaN3]
[2]; substance conc. 5 mM, None = 100, pH 7.0, 30° C.
  Relative Activity (%) in presence of substance: 100%

## CCN1C(=O)C=CC1=O [N--Ethylmaleimide, N-Ethylmaleimide]
[1]
  activity at 1000 µM: 0%
[2]; summary of Table 8
  Effect on enzyme activity (in words): inhibited the enzyme activity strongly
